# Read-outs that look alike come from different tables or passages of the source.
# How the values were obtained:
# [1] = tested on: Key Grass and Sedge Weeds as well as Grass Crops; experiment: Post-emergent Test II herbicidal activity (Table 6); format: in vivo; details: post-emergence, 336 h; for pest or weed control at 70 g/ha: application rate 70 g ai/ha; for pest or weed control at 140 g/ha: application rate 140 g ai/ha
# Procedure, shortened: (§1)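 Post-emergence foliar spray, 187 L/ha, track sprayer at 43 cm above canopy. Carrier: acetone/water/IPA/DMSO/Atplus 411F/Triton X-155. Plants at 1st–2nd true leaf; subirrigated afterwards; % injury scored visually at 14 d.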
# [2] = tested on: Key Broadleaf Weed and Crop Species; experiment: Post-emergent Test II herbicidal activity (Table 5); format: in vivo; details: post-emergence, 336 h, post-emergent, 14 days after application; for pest or weed control at 70 g/ha: 70 g ai/ha; for pest or weed control at 140 g/ha: 140 g ai/ha
# Procedure, shortened: as §1
# [3] = Triticum aestivum, TRZSS (wheat), read-out: Visual Growth Reduction (%) 14 Days After Application, TRZSS
# [4] = CYPES: yellow nutsedge (Cyperus esculentus), read-out: Visual Growth Reduction (%) 14 Days After Application, CYPES
# [5] = DIGSA: crabgrass (Digitaria sanguinalis), read-out: Visual Growth Reduction (%) 14 Days After Application, DIGSA
# [6] = ECHCG: barnyardgrass (Echinochloa crus-galli), read-out: Visual Growth Reduction (%) 14 Days After Application, ECHCG
# [7] = ORYSA: rice (Oryza sativa), read-out: Visual Growth Reduction (%) 14 Days After Application, ORYSA
# [8] = SETFA: giant foxtail (Setaria faberi), read-out: Visual Growth Reduction (%) 14 Days After Application, SETFA
# [9] = SORVU: grain sorghum (Sorghum vulgare), read-out: Visual Growth Reduction (%) 14 Days After Application, SORVU
# [10] = ZEAMX: maize, corn (Zea mays), read-out: Visual Growth Reduction (%) 14 Days After Application, ZEAMX
# [11] = ABUTH: velvetleaf (Abutilon theophrasti), read-out: Visual Growth Reduction (%) 14 Days After Application ABUTH
# [12] = AMARE: redroot pigweed (Amaranthus retroflexus), read-out: Visual Growth Reduction (%) 14 Days After Application AMARE
# [13] = BRSNN: oilseed-rape, canola (Brassica napus), read-out: Visual Growth Reduction (%) 14 Days After Application BRSNN
# [14] = CHEAL: lambsquarters (Chenopodium album), read-out: Visual Growth Reduction (%) 14 Days After Application CHEAL
# [15] = EPHHL: wild poinsettia (Euphorbia heterophylla), read-out: Visual Growth Reduction (%) 14 Days After Application EPHHL
# [16] = HELAN: sunflower (Helianthus annuus), read-out: Visual Growth Reduction (%) 14 Days After Application HELAN
# [17] = VIOTR: wild pansy (Viola tricolor), read-out: Visual Growth Reduction (%) 14 Days After Application VIOTR
Structure (SMILES),"pest or weed control at 70 g/ha [1, 3] [%]","pest or weed control at 140 g/ha [1, 3] [%]","pest or weed control at 70 g/ha [1, 4] [%]","pest or weed control at 140 g/ha [1, 4] [%]","pest or weed control at 140 g/ha [1, 5] [%]","pest or weed control at 70 g/ha [1, 6] [%]","pest or weed control at 140 g/ha [1, 6] [%]","pest or weed control at 70 g/ha [1, 7] [%]","pest or weed control at 140 g/ha [1, 7] [%]","pest or weed control at 70 g/ha [1, 8] [%]","pest or weed control at 140 g/ha [1, 8] [%]","pest or weed control at 70 g/ha [1, 9] [%]","pest or weed control at 140 g/ha [1, 9] [%]","pest or weed control at 70 g/ha [1, 10] [%]","pest or weed control at 140 g/ha [1, 10] [%]","pest or weed control at 70 g/ha [2, 11] [%]","pest or weed control at 140 g/ha [2, 11] [%]","pest or weed control at 70 g/ha [2, 12] [%]","pest or weed control at 140 g/ha [2, 12] [%]","pest or weed control at 70 g/ha [2, 13] [%]",further results
COC(=O)c1nc(-c2cc(F)c(Br)cc2F)nc(N)c1OC [Compound 2],45 to 59,45 to 59,60 to 74,60 to 74,60 to 74,60 to 74,60 to 74,0 to 29,0 to 29,45 to 59,60 to 74,30 to 44,60 to 74,75 to 84,75 to 84,95 to 100,95 to 100,85 to 94,85 to 94,95 to 100,"pest or weed control at 140 g/ha [2, 13]: 95 to 100%; pest or weed control at 70 g/ha [2, 14]: 95 to 100%; pest or weed control at 140 g/ha [2, 14]: 95 to 100%; pest or weed control at 70 g/ha [2, 15]: 95 to 100%; pest or weed control at 140 g/ha [2, 15]: 95 to 100%; pest or weed control at 70 g/ha [2, 16]: 95 to 100%; pest or weed control at 140 g/ha [2, 16]: 95 to 100%; pest or weed control at 70 g/ha [2, 17]: 30 to 44%; pest or weed control at 140 g/ha [2, 17]: 95 to 100%"
Nc1cc(-c2cc(F)c(Br)cc2F)nc(C(=O)O)c1Cl [Compound 3],60 to 74,60 to 74,95 to 100,95 to 100,85 to 94,85 to 94,85 to 94,30 to 44,45 to 59,95 to 100,95 to 100,85 to 94,85 to 94,85 to 94,85 to 94,95 to 100,95 to 100,95 to 100,95 to 100,85 to 94,"pest or weed control at 70 g/ha [1, 5]: 75 to 84%; pest or weed control at 140 g/ha [2, 13]: 95 to 100%; pest or weed control at 70 g/ha [2, 14]: 95 to 100%; pest or weed control at 140 g/ha [2, 14]: 95 to 100%; pest or weed control at 70 g/ha [2, 15]: 95 to 100%; pest or weed control at 140 g/ha [2, 15]: 95 to 100%; pest or weed control at 70 g/ha [2, 16]: 85 to 94%; pest or weed control at 140 g/ha [2, 16]: 85 to 94%; pest or weed control at 70 g/ha [2, 17]: 95 to 100%; pest or weed control at 140 g/ha [2, 17]: 95 to 100%"
COc1c(N)nc(-c2cc(F)c(Br)cc2F)nc1C(=O)O [Compound 11],45 to 59,60 to 74,45 to 59,45 to 59,60 to 74,85 to 94,85 to 94,0 to 29,0 to 29,60 to 74,60 to 74,60 to 74,75 to 84,60 to 74,60 to 74,95 to 100,95 to 100,95 to 100,95 to 100,95 to 100,"pest or weed control at 70 g/ha [1, 5]: 60 to 74%; pest or weed control at 140 g/ha [2, 13]: 95 to 100%; pest or weed control at 70 g/ha [2, 14]: 95 to 100%; pest or weed control at 140 g/ha [2, 14]: 95 to 100%; pest or weed control at 70 g/ha [2, 15]: 95 to 100%; pest or weed control at 140 g/ha [2, 15]: 95 to 100%; pest or weed control at 70 g/ha [2, 16]: 95 to 100%; pest or weed control at 140 g/ha [2, 16]: 95 to 100%; pest or weed control at 70 g/ha [2, 17]: 0 to 29%; pest or weed control at 140 g/ha [2, 17]: 45 to 59%"

# Source: patent US9113629B2, “4-amino-6-(4-substituted-phenyl)-picolinates and 6-amino-2-(4-substituted-phenyl)-pyrimidine-4-carboxylates and their use as herbicides” (DOW AGROSCIENCES LLC, priority 2013, dated 2015)
